Test results: US20260102377A1, “COMPOSITIONS AND METHODS FOR TREATING MYASTHENIA GRAVIS” (priority 2022, published 2026)
“Also recorded” adds a separate entry of the source. Read-outs that look alike come from different tables or passages of the source.

Legend:
[1] = tested on: soleus muscle fibres from healthy and EAMG rats; assay: Rheobase current (muscle fibre excitability) in soleus muscle fibres; format: cell-based, rat; settings: 20 μM NMD670; soleus muscle fibres from healthy (n=20) and EAMG (n=12) rats, before vs after addition
Excerpt: To allow for measurements of electrophysiological properties at the cellular level and for measurements of force, it was necessary to isolate nerve-muscle preparations from the rats. To this end, animals were sacrificed, and muscles were dissected out with 1 to 3 cm of intact nerve. The nerve-muscle preparations were then transferred to the organ baths used for the particular experiments (see below) and perfused with Normal Krebs-Ringer (NKR) solution, consisting of (in mM); 122 NaCl, 25 NaHCO3, 2.8 KCl, 1.2 KH2PO4, 1.2 MgSO4 1.27 CaCl2 and 5 D-glucose. This NKR solution was continuously gassed with a mixture of 95% oxygen and 5% CO2, to maintain a pH of approx. 7.4. In some experiments methyl-sulphate was used to replace Cl^− in the solution. All chemicals used were of analytical grade.

[2] = tested on: EAMG rats; assay: 14-day dosing in EAMG animals: grip strength; format: in vivo, rat
Procedure: To induce EAMG, 250 μL of emulsion of Complete Freund's Adjuvant, consisting of heat-inactivated Mycobacterium tuberculosis H37Ra in non-metabolizable oils, together with Phosphate-Buffered Saline (PBS) and 80 μg of the extracellular α-domain peptide fragment of the human nicotinic acetylcholine receptor (antigen) was injected subcutaneously in seven-week-old, anaesthetized Lewis rats. The disease-inducing antigen was supplied by the Hellenic Pasteur institute3. The emulsion was deposited at the tail base, left hindleg, and right foreleg. After injection, animals were allowed to recover and returned to their home cage maintained in ventilated racks under controlled temperature (20 to 22° C.) and humidity (˜55%) control, under a 12-h light/12-h dark cycle with food and water provided ad libitum. The animals had pathogen free status and the housing and changing system was designed to assure that the pathogen free status was preserved during the study. The EAMG rats were observed, weighed, and scored for MG symptoms weekly until symptoms of MG developed, whereafter animals were observed daily.
Sixteen (16) rats with an EAMG clinical score of 2 were allocated to the study and stratified to one of the two treatment groups (vehicle vs NMD670, 8 rats per group). Stratification was based on rotarod endurance and grip strength performance with the aim to obtain similar average starting points for the two groups. Grip strength and Rotarod performance were measured prior to treatment (day 0) and on days 1, 4, 7, 9, 11 and 14 during treatment. The treatment was administered by per oral gavage. Dosing was twice daily with 20 mg/kg NMD670 or vehicle (sterile water) for 14 days unless the rat was subjected to premature termination due to reaching humane endpoints. The dose solutions for the treatment groups were blinded. Thus, experimenters and subsequent analysis were blinded as to which group received CIC-1 inhibitor and which group received vehicle. Full analysis of data and statistics were concluded before unblinding the data. Plasma samples were obtained on days 0, 1 and 14, with muscle samples obtained on day 14 at termination.
Grip strength was measured on a BIOSEB BIO-GT3 Grip strength meter (force transducer, S/N 180271). The rat was handled to allow all four paws to grab the mesh on the grip meter and the rat was then pulled 5 times by the base of the tail in the opposite direction of its body orientation, i.e. towards the operator and away from the grip meter. Care was taken to ensure that the force recorded reflected the grip strength of the rat and not the force of the pulls conducted by the operator. There was minimal pause between the 5 repeated pulls with recordings being separated only by the time of handling the rat (few seconds). Measurements were considered invalid if the rat let go with one or more limbs before the pull was initiated. Average values of the 5 pulls per test occasion were used for further data processing.

[3] = tested on: patients with myasthenia gravis; assay: Phase IIA clinical trial (Part C): hand grip strength (Jamar dynamometer); format: in vivo, human
Procedure: For each subject, the study consisted of three study periods during which subjects received either a single dose of NMD670 400 mg, NMD670 1200 mg, or placebo with a 7-day washout period between visits. On these study visits, subjects were asked to refrain from their regular dose of pyridostigmine (if applicable) from 14 h before dosing until after the last pharmacodynamic measurement on Day 1 (see Table 13: Visit and Assessment Schedule). The cross-over design allowed intra-individual comparison of drug effects versus placebo (see FIG. 16). A balanced design was applied to control for first-order carry-over effects.
Part C was a double-blinded, placebo-controlled, three-way cross-over comparison of two single oral doses of NMD670 in men and women with stable symptomatic myasthenia gravis. 12 patients were enrolled. For each subject, the study consisted of three study periods during which subjects received either a single dose of NMD670 or placebo. On these study visits, subjects were asked to refrain from their regular dose of pyridostigmine (if applicable) for 14 hours before dosing. Single doses were administered in randomized order (400 mg free acid, 1200 mg free acid, or placebo p.o.), with a 7-day washout period between visits (FIG. 16). NMD670/placebo was administered with 240 ml of still water.
Hand grip was evaluated with a Jamar hand grip dynamometer. An analysis of hand grip strength, an item of QMG score and therefore not an independent variable for the total score, was also performed (table 18).

[4] = Phase I clinical trial Part A: pharmacokinetics; format: in vivo; settings: human; for Cmax / half-life / AUC(0-inf): plasma; for AUC(0-inf): read-out: AUC0-infinity (Mean ± SD, h · ng/mL)
[5] = male, po, 1600 mg, 1600 mg single oral dose, healthy male subjects, SD not given

Question: With `C[C@H](Oc1ccc(Br)cc1-c1ccon1)C(=O)O` [NMD670, (2S)-2-[4-bromo-2-(1,2-oxazol-3-yl)phenoxy]propanoic acid] as the compound, how does the Rheobase current [1] read?
Answer: significantly reduced rheobase current

Question: And the “Grip strength over vehicle group throughout the period of treatment” value ([2]; 14-day chronic dosing, 20 mg/kg twice daily)?
Answer: increased grip strength

Question: And the “Grip strength relative to bodyweight” value ([2]; day 0 (prior to treatment), 20 mg/kg twice daily per oral, P > 0.9999 vs vehicle)?
Answer: 4.8 ± 0.17

Question: And the “Grip strength relative to bodyweight” value ([2]; day 1, 20 mg/kg twice daily per oral, P = 0.1225 vs vehicle)?
Answer: 5.5 ± 0.46

Question: What about the “Grip strength relative to bodyweight” value ([2]; day 4, 20 mg/kg twice daily per oral, P = 0.0629 vs vehicle) of the same compound?
Answer: 5.4 ± .038

Question: What about the “Grip strength relative to bodyweight” value ([2]; day 7, 20 mg/kg twice daily per oral, P = 0.7266 vs vehicle) of the same compound?
Answer: 4.9 ± 0.26

Question: And the “Grip strength relative to bodyweight” value ([2]; day 9, 20 mg/kg twice daily per oral, P = 0.2100 vs vehicle)?
Answer: 5.0 ± 0.27

Question: What about the “Grip strength relative to bodyweight” value ([2]; day 11, 20 mg/kg twice daily per oral, P = 0.0206 vs vehicle) of the same compound?
Answer: 5.4 ± 0.41

Question: What about the “Grip strength relative to bodyweight” value ([2]; day 14, 20 mg/kg twice daily per oral, P = 0.1010 vs vehicle) of the same compound?
Answer: 5.1 ± 0.47

Question: And the “Right-hand grip strength, CFB over placebo, Arithmetic mean” value ([3]; 400 mg versus placebo, 3-hour)?
Answer: 2.4 kg

Question: And the “Right-hand grip strength, CFB over placebo, LSM” value ([3]; 400 mg versus placebo, 3-hour, p = 0.05)?
Answer: 2.4 kg

Question: What about the “Right-hand grip strength, CFB over placebo, Arithmetic mean” value ([3]; 400 mg versus placebo, 5-hour) of the same compound?
Answer: 0.4 kg

Question: And the “Right-hand grip strength, CFB over placebo, LSM” value ([3]; 400 mg versus placebo, 5-hour, p = 0.76)?
Answer: 0.4 kg

Question: And the “Right-hand grip strength, CFB over placebo, LSM” value ([3]; 400 mg versus placebo, Overall, p = 0.19)?
Answer: 1.4 kg

Question: What about the “Right-hand grip strength, CFB over placebo, Arithmetic mean” value ([3]; 1200 mg versus placebo, 3-hour) of the same compound?
Answer: 2.9 kg

Question: And the “Right-hand grip strength, CFB over placebo, LSM” value ([3]; 1200 mg versus placebo, 3-hour, p = 0.02)?
Answer: 2.9 kg

Question: And the “Right-hand grip strength, CFB over placebo, Arithmetic mean” value ([3]; 1200 mg versus placebo, 5-hour)?
Answer: 2.8 kg

Question: And the “Right-hand grip strength, CFB over placebo, LSM” value ([3]; 1200 mg versus placebo, 5-hour, p = 0.03)?
Answer: 2.8 kg

Question: And the “Right-hand grip strength, CFB over placebo, LSM” value ([3]; 1200 mg versus placebo, Overall, p = 0.01)?
Answer: 2.8 kg

Question: And the “Change from baseline over placebo in hand grip strength, left and right hand” value ([3]; both doses (400 mg, 1200 mg), statistically significant for the right hand)?
Answer: improved; also recorded: numerically positive

Question: And the Cmax ([4]; female, po, 800 mg, 800 mg (female), single oral dose, read-out: Cmax (Mean ± SD, ng/mL))?
Answer: 44400 ± 7480 ng/mL

Question: And the “Accumulation between single and multiple dosing” value ([4]; phase 1 FIH study)?
Answer: no meaningful accumulation

Question: What about the half-life ([4]; oral, mostly eliminated in 24 hours, read-out: Half-life (converted)) of the same compound?
Answer: ~5 h

Question: And the Cmax ([4]; male, po, 50 mg, 50 mg single oral dose, healthy male subjects, read-out: Cmax (Mean ± SD, ng/mL))?
Answer: 1900 ± 580 ng/mL

Question: And the AUC(0-inf) ([4]; male, po, 100 mg, 100 mg single oral dose, healthy male subjects)?
Answer: 18.5 ± 1.77 µg·h/mL

Question: And the Cmax ([4]; male, po, 100 mg, 100 mg single oral dose, healthy male subjects, read-out: Cmax (Mean ± SD, ng/mL))?
Answer: 3980 ± 1190 ng/mL

Question: What about the half-life ([4]; male, po, 100 mg, 100 mg single oral dose, healthy male subjects, read-out: T1/2 (mean ± SD, hr) (converted)) of the same compound?
Answer: 5.07 ± 0.63 h

Question: And the AUC(0-inf) ([4]; male, po, 200 mg, 200 mg single oral dose, healthy male subjects)?
Answer: 36.1 ± 5.03 µg·h/mL

Question: And the Cmax ([4]; male, po, 200 mg, 200 mg single oral dose, healthy male subjects, read-out: Cmax (Mean ± SD, ng/mL))?
Answer: 7780 ± 1130 ng/mL

Question: And the half-life ([4]; male, po, 200 mg, 200 mg single oral dose, healthy male subjects, read-out: T1/2 (mean ± SD, hr) (converted))?
Answer: 4.6 ± 0.67 h

Question: What about the AUC(0-inf) ([4]; male, po, 400 mg, 400 mg single oral dose, healthy male subjects) of the same compound?
Answer: 87.7 ± 21.4 µg·h/mL

Question: And the Cmax ([4]; male, po, 400 mg, 400 mg single oral dose, healthy male subjects, read-out: Cmax (Mean ± SD, ng/mL))?
Answer: 20100 ± 7340 ng/mL

Question: What about the half-life ([4]; male, po, 400 mg, 400 mg single oral dose, healthy male subjects, read-out: T1/2 (mean ± SD, hr) (converted)) of the same compound?
Answer: 4.68 ± 0.49 h

Question: What about the AUC(0-inf) ([4]; male, po, 800 mg, 800 mg fasted (male), single oral dose) of the same compound?
Answer: 191 ± 31.5 µg·h/mL

Question: And the Cmax ([4]; male, po, 800 mg, 800 mg fasted (male), single oral dose, read-out: Cmax (Mean ± SD, ng/mL))?
Answer: 36700 ± 15400 ng/mL

Question: What about the AUC(0-inf) ([4]; male, po, 800 mg, 800 mg fed (male), single oral dose) of the same compound?
Answer: 180 ± 27.9 µg·h/mL

Question: What about the Cmax ([4]; male, po, 800 mg, 800 mg fed (male), single oral dose, read-out: Cmax (Mean ± SD, ng/mL)) of the same compound?
Answer: 37300 ± 7420 ng/mL

Question: And the AUC(0-inf) ([4]; male, po, 1200 mg, 1200 mg single oral dose, healthy male subjects)?
Answer: 358 ± 176 µg·h/mL

Question: What about the Cmax ([4]; male, po, 1200 mg, 1200 mg single oral dose, healthy male subjects, read-out: Cmax (Mean ± SD, ng/mL)) of the same compound?
Answer: 55000 ± 21700 ng/mL

Question: And the half-life ([4]; male, po, 1200 mg, 1200 mg single oral dose, healthy male subjects, read-out: T1/2 (mean ± SD, hr) (converted))?
Answer: 6.11 ± 1.28 h

Question: What about the Cmax [4, 5] of the same compound?
Answer: 123000 ng/mL

Question: What about the AUC(0-inf) [4, 5] of the same compound?
Answer: 826 µg·h/mL

Question: And the half-life ([4]; male, po, 1600 mg, 1600 mg single oral dose, healthy male subjects, SD not given, read-out: T1/2 (mean ± SD, hr) (converted))?
Answer: 4.48 h
